The text below walks through data of article PMC5708526, “Targeting secondary protein complexes in drug discovery: studying the druggability and chemical biology of the HSP70/BAG1 complex” (Chemical Communications (Cambridge, England), 2017).

In this assay the target is T1, TR-HSC70 (aa 4-381) (Homo sapiens, UniProt P11142).
T1 construct: HSC70-NBD (residues 4 to 381); made in house
The experiment in a line: Fluorescence polarisation probe KD determination with truncated HSC70. The assay is classed as binding. The procedure:
To determine the binding affinity of bisaryl FP-probe 11 for HSP72, increasing concentrations of the protein were titrated against a fixed concentration (10 nM) of the FP-probe. […] We speculated that this decrease in apparent KD was due to the slow hydrolysis of the ATP-probe to ADP-ATTO-488 + Pi. Although HSP72 has low intrinsic ATPase activity,[8] the high enzyme concentration could catalyse hydrolysis over the time-frame of the assay, with the initial KD values reflective of the known modest affinity of ATP for HSP70, whilst the final KD value was consistent with the higher affinity ADP ligand.[14] […]
TRIS Tris(hydroxymethyl)aminomethane
General Information: Unless otherwise stated the aqueous assay buffer contained 50 mM TRIS base pH 7.4, 150 mM NaCl, 6 mM MgCl2, 1 mM DTT, 0.1% (wt/wt) CHAPS. The assay was conducted using 384 Plus F ProxiPlates (PerkinElmer) with a final assay volume of 10 μL. Plates were centrifuged at 1000 rpm for 1 minute prior to incubation and read using an 2103 Envision Multilable Plate Reader. Excitation and emission wavelengths used for green probes were 480 nm and 535 nm, respectively.
Fluorescence polarisation was measured in units of millipolarization (mP). […] Data were plotted and analysed using GraphPad Prism 6, graphical data represents the mean ± standard error of the mean for a single representative experiment. […]
(Fluorescence polarisation rises when a labelled molecule tumbles more slowly, as on binding a larger partner.)

T1 sequence (P11142 4-381): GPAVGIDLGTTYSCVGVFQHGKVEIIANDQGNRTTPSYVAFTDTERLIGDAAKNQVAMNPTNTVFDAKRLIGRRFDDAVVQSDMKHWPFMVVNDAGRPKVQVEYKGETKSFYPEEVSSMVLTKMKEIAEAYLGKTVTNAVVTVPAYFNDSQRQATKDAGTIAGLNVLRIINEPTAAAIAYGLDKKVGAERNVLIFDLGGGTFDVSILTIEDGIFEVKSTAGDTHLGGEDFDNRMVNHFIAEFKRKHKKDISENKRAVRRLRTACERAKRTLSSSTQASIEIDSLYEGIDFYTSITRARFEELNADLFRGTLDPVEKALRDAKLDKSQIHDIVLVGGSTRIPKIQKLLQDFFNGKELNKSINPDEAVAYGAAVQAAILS

One may read the Kd as the equilibrium constant for the complex coming apart. The pKD is the negative decadic logarithm of the KD, by convention in mol/L. On to `CN(CCCC(=O)NCCCCCCNc1ncnc2c1nc(NCc1ccc3ncccc3c1)n2[C@@H]1O[C@H](COCc2ccc(C(F)(F)F)cc2)[C@@H](O)[C@H]1O)C(=O)c1ccccc1-c1c2ccc(=N)c(S(=O)(=O)O)c-2oc2c(S(=O)(=O)O)c(N)ccc12` [compound 11], for which, for the setting “TR-HSC70”, the Kd amounted to 0.117 µM. Further, for the setting “TR-HSC70, n = 2”, the pKD is 6.93.
